Data taken from PubChem BioAssay AID2060909 (Molecular Pharmacology Branch, DTP, NCI, 2025).

Tested on: 362531-283-R-J2-PDC complex spheroid viability
Experiment: Anticancer human tumor 362531-283-R-J2-PDC patient-derived colon adenocarcinoma cell line growth inhibition [RAS]
Conditions: for IC50: curve of first compound; for viability, T/C: stronger effect = lower value
Procedure, shortened: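 Agents were tested in combination matrices in half-log decrements from a top concentration at or near clinical Cmax (10 microM if undetermined). Targets were multi-cell spheroids of tumour lines plus HUVEC and MSC stromal cells.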

[1] = second compound 0.000949 µM, first compound 0.0316 µM
[2] = second compound 0.000949 µM, first compound 0.1 µM
[3] = second compound 0.003 µM, first compound 0.0316 µM
[4] = second compound 0.003 µM, first compound 0.1 µM
[5] = second compound 0.00949 µM, first compound 0.0316 µM
[6] = second compound 0.00949 µM, first compound 0.1 µM
[7] = second compound 0.03 µM, first compound 0.0316 µM
[8] = second compound 0.03 µM, first compound 0.1 µM
[9] = second compound 0.0949 µM, first compound 0.0316 µM
[10] = second compound 0.0949 µM, first compound 0.1 µM
[11] = second compound 0.3 µM, first compound 0.0316 µM
[12] = second compound 0.3 µM, first compound 0.1 µM
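Further: spheroids exposed to the agents for 7 days before readout.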
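Wherever viability, T/C is given: luminescence viability as percent of DMSO vehicle control wells.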

Structure (SMILES): CCC(CC)c1cc(NC2CCC(N)C2)n2nccc2n1 (stereo unspecified) + CCn1c(-c2cccnc2C(C)OC)c2c3cc(ccc31)N1CCOC(CC(NC(=O)C(C(C)C)N(C)C(=O)C3(F)CCN(C(=O)C#CC(C)(C)N(C)C)CC3)C(=O)N3CCCC(N3)C(=O)OCC(C)(C)C2)C1
- IC50 (second compound 0.000949 µM): 4520 nM
- IC50 (second compound 0.003 µM): 4500 nM
- IC50 (second compound 0.00949 µM): 4340 nM
- IC50 (second compound 0.03 µM): 4720 nM
- IC50 (second compound 0.0949 µM): 4680 nM
- IC50 (second compound 0.3 µM): 4950 nM
- viability, T/C [1]: 99.5%
- viability, T/C [2]: 111%
- viability, T/C (second compound 0.000949 µM, first compound 0.316 µM): 98.1%
- viability, T/C (second compound 0.000949 µM, first compound 1 µM): 98.4%
- viability, T/C (second compound 0.000949 µM, first compound 3.16 µM): 70.5%
- viability, T/C (second compound 0.000949 µM, first compound 10 µM): 3.98%
- viability, T/C [3]: 105%
- viability, T/C [4]: 101%
- viability, T/C (second compound 0.003 µM, first compound 0.316 µM): 99.9%
- viability, T/C (second compound 0.003 µM, first compound 1 µM): 101%
- viability, T/C (second compound 0.003 µM, first compound 3.16 µM): 70.8%
- viability, T/C (second compound 0.003 µM, first compound 10 µM): 3.44%
- viability, T/C [5]: 103%
- viability, T/C [6]: 116%
- viability, T/C (second compound 0.00949 µM, first compound 0.316 µM): 97.9%
- viability, T/C (second compound 0.00949 µM, first compound 1 µM): 96.5%
- viability, T/C (second compound 0.00949 µM, first compound 3.16 µM): 67.2%
- viability, T/C (second compound 0.00949 µM, first compound 10 µM): 3.91%
- viability, T/C [7]: 102%
- viability, T/C [8]: 104%
- viability, T/C (second compound 0.03 µM, first compound 0.316 µM): 95.8%
- viability, T/C (second compound 0.03 µM, first compound 1 µM): 89%
- viability, T/C (second compound 0.03 µM, first compound 3.16 µM): 76.8%
- viability, T/C (second compound 0.03 µM, first compound 10 µM): 4.25%
- viability, T/C [9]: 94.3%
- viability, T/C [10]: 102%
- viability, T/C (second compound 0.0949 µM, first compound 0.316 µM): 93.7%
- viability, T/C (second compound 0.0949 µM, first compound 1 µM): 94.8%
- viability, T/C (second compound 0.0949 µM, first compound 3.16 µM): 73.7%
- viability, T/C (second compound 0.0949 µM, first compound 10 µM): 4.42%
- viability, T/C [11]: 99.2%
- viability, T/C [12]: 105%
- viability, T/C (second compound 0.3 µM, first compound 0.316 µM): 100%
- viability, T/C (second compound 0.3 µM, first compound 1 µM): 91.8%
- viability, T/C (second compound 0.3 µM, first compound 3.16 µM): 80.8%
- viability, T/C (second compound 0.3 µM, first compound 10 µM): 4.23%

Structure (SMILES): CC(C)n1nc(-c2ccc3oc(N)nc3c2)c2c(N)ncnc21 + CCn1c(-c2cccnc2C(C)OC)c2c3cc(ccc31)N1CCOC(CC(NC(=O)C(C(C)C)N(C)C(=O)C3(F)CCN(C(=O)C#CC(C)(C)N(C)C)CC3)C(=O)N3CCCC(N3)C(=O)OCC(C)(C)C2)C1
- IC50 (second compound 0.000949 µM): 70.8 nM
- IC50 (second compound 0.003 µM): 85.7 nM
- IC50 (second compound 0.00949 µM): 52.3 nM
- IC50 (second compound 0.03 µM): 68.6 nM
- IC50 (second compound 0.0949 µM): 73.3 nM
- IC50 (second compound 0.3 µM): 65.4 nM
- viability, T/C (second compound 0.000949 µM, first compound 0.000316 µM): 95.5%
- viability, T/C (second compound 0.000949 µM, first compound 0.001 µM): 98.7%
- viability, T/C (second compound 0.000949 µM, first compound 0.00316 µM): 108%
- viability, T/C (second compound 0.000949 µM, first compound 0.01 µM): 96.2%
- viability, T/C [1]: 75%
- viability, T/C [2]: 39.4%
- viability, T/C (second compound 0.003 µM, first compound 0.000316 µM): 99.9%
- viability, T/C (second compound 0.003 µM, first compound 0.001 µM): 92.8%
- viability, T/C (second compound 0.003 µM, first compound 0.00316 µM): 102%
- viability, T/C (second compound 0.003 µM, first compound 0.01 µM): 92.2%
- viability, T/C [3]: 74.5%
- viability, T/C [4]: 46.2%
- viability, T/C (second compound 0.00949 µM, first compound 0.000316 µM): 98.9%
- viability, T/C (second compound 0.00949 µM, first compound 0.001 µM): 108%
- viability, T/C (second compound 0.00949 µM, first compound 0.00316 µM): 92.9%
- viability, T/C (second compound 0.00949 µM, first compound 0.01 µM): 114%
- viability, T/C [5]: 57.3%
- viability, T/C [6]: 40.6%
- viability, T/C (second compound 0.03 µM, first compound 0.000316 µM): 103%
- viability, T/C (second compound 0.03 µM, first compound 0.001 µM): 93%
- viability, T/C (second compound 0.03 µM, first compound 0.00316 µM): 107%
- viability, T/C (second compound 0.03 µM, first compound 0.01 µM): 95.5%
- viability, T/C [7]: 63.9%
- viability, T/C [8]: 43.2%
- viability, T/C (second compound 0.0949 µM, first compound 0.000316 µM): 90.4%
- viability, T/C (second compound 0.0949 µM, first compound 0.001 µM): 93.9%
- viability, T/C (second compound 0.0949 µM, first compound 0.00316 µM): 95.5%
- viability, T/C (second compound 0.0949 µM, first compound 0.01 µM): 106%
- viability, T/C [9]: 68.7%
- viability, T/C [10]: 43.1%
- viability, T/C (second compound 0.3 µM, first compound 0.000316 µM): 87.9%
- viability, T/C (second compound 0.3 µM, first compound 0.001 µM): 105%
- viability, T/C (second compound 0.3 µM, first compound 0.00316 µM): 103%
- viability, T/C (second compound 0.3 µM, first compound 0.01 µM): 103%
- viability, T/C [11]: 71.8%
- viability, T/C [12]: 37.3%

Structure (SMILES): CC(Nc1ccc2c(c1)OCCn1cc(N3C(=O)OCC3C(F)F)nc1-2)C(N)=O (stereo unspecified) + C=CC(=O)N1CCN(c2nc(OCC3CCCN3C)nc3c(F)c(-c4nc(N)cc(C)c4C(F)(F)F)c(Cl)cc23)C(C)C1
- IC50 (second compound 0.00316 µM): 549 nM
- IC50 (second compound 0.01 µM): 928 nM
- IC50 (second compound 0.0316 µM): 666 nM
- IC50 (second compound 0.1 µM): 810 nM
- IC50 (second compound 0.316 µM): 839 nM
- IC50 (second compound 1 µM): 808 nM
- viability, T/C (second compound 0.00316 µM, first compound 0.0316 µM): 96.6%
- viability, T/C (second compound 0.00316 µM, first compound 0.1 µM): 78.6%
- viability, T/C (second compound 0.00316 µM, first compound 0.316 µM): 54.5%
- viability, T/C (second compound 0.00316 µM, first compound 1 µM): 46.1%
- viability, T/C (second compound 0.00316 µM, first compound 3.16 µM): 39.1%
- viability, T/C (second compound 0.00316 µM, first compound 10 µM): 42.7%
- viability, T/C (second compound 0.01 µM, first compound 0.0316 µM): 97.4%
- viability, T/C (second compound 0.01 µM, first compound 0.1 µM): 86.2%
- viability, T/C (second compound 0.01 µM, first compound 0.316 µM): 70.2%
- viability, T/C (second compound 0.01 µM, first compound 1 µM): 46.8%
- viability, T/C (second compound 0.01 µM, first compound 3.16 µM): 38.3%
- viability, T/C (second compound 0.01 µM, first compound 10 µM): 30.3%
- viability, T/C (second compound 0.0316 µM, first compound 0.0316 µM): 87.4%
- viability, T/C (second compound 0.0316 µM, first compound 0.1 µM): 84.4%
- viability, T/C (second compound 0.0316 µM, first compound 0.316 µM): 63.7%
- viability, T/C (second compound 0.0316 µM, first compound 1 µM): 43.5%
- viability, T/C (second compound 0.0316 µM, first compound 3.16 µM): 33.3%
- viability, T/C (second compound 0.0316 µM, first compound 10 µM): 43.4%
- viability, T/C (second compound 0.1 µM, first compound 0.0316 µM): 95.9%
- viability, T/C (second compound 0.1 µM, first compound 0.1 µM): 92.5%
- viability, T/C (second compound 0.1 µM, first compound 0.316 µM): 71.7%
- viability, T/C (second compound 0.1 µM, first compound 1 µM): 44.2%
- viability, T/C (second compound 0.1 µM, first compound 3.16 µM): 35.4%
- viability, T/C (second compound 0.1 µM, first compound 10 µM): 27.4%
- viability, T/C (second compound 0.316 µM, first compound 0.0316 µM): 107%
- viability, T/C (second compound 0.316 µM, first compound 0.1 µM): 88%
- viability, T/C (second compound 0.316 µM, first compound 0.316 µM): 68.8%
- viability, T/C (second compound 0.316 µM, first compound 1 µM): 47.9%
- viability, T/C (second compound 0.316 µM, first compound 3.16 µM): 31.9%
- viability, T/C (second compound 0.316 µM, first compound 10 µM): 35.8%
- viability, T/C (second compound 1 µM, first compound 0.0316 µM): 94.8%
- viability, T/C (second compound 1 µM, first compound 0.1 µM): 95.6%
- viability, T/C (second compound 1 µM, first compound 0.316 µM): 72%
- viability, T/C (second compound 1 µM, first compound 1 µM): 46.6%
- viability, T/C (second compound 1 µM, first compound 3.16 µM): 31.8%
- viability, T/C (second compound 1 µM, first compound 10 µM): 35%
